Earlier results as cited in US8748394B2, “Apo A-I mimetic peptides and methods of treatment” (Abbott Cardiovascular Systems Inc., priority 2007, dated 2014).
“Also recorded” adds a separate entry of the source. Square brackets hold non-standard residues; d marks the D form. Ends that are not written are not given here.

Tested on: reverse cholesterol transport
Conditions: for function in reverse cholesterol transport in vitro: when a phospholipid complex is presented; for effectiveness in reverse cholesterol transport: without a lipid complex (non-complex form)

Substance | function in reverse cholesterol transport in vitro | effectiveness in reverse cholesterol transport | need of phospholipid complex for effective reverse cholesterol transport
DWFKAFYDKVAEKFKEAF [L-4F] (not fully specified) [18 amino acid Apo A-I mimetic peptide 4F, L enantiomer] | function more effectively | demonstrated an ability to function in a non-complex form | –
Ac-PALEDLRQGLLPVLESFKVFLSALEEYTKKLNTQ-NH2 [33-mer peptide mimetic, 33-mer peptide, helices 9/10] | – | – | requires phospholipid complex formation
DWFKAFYDKVAEKFKEAF [D-4F] ([dD][dW][dF][dK][dA][dF][dY][dD][dK][dV][dA][dE][dK][dF][dK][dE][dA][dF]) [18 amino acid Apo A-I mimetic peptide 4F, D enantiomer] | function more effectively | effective in reverse cholesterol transport without a lipid complex; also recorded: demonstrated an ability to function in a non-complex form | –
